Tested on: A/Mississippi/3/2001/Variante, H1N1
Assay type: cell-based, Influenzaviren

O=C(/C=C/c1ccc(O)cc1)OC[C@H]1O[C@@H](Oc2c(-c3ccc(O)cc3)oc3cc(O)cc(O)c3c2=O)[C@H](O)[C@@H](O)[C@@H]1O [Tilirosid, Kaempferol-3-(6"-trans-p-coumaroyl)glucosid]
Selektivitätsindex (S.I.): 1.047 | antivirale Wirkung: antiviral wirkt

Source: patent EP3352763B1 (priority 2015, dated 2017)
